Data set [1] relates to carrageenin induced paw edema. Description: Anti-inflammatory activity (carragenin induced paw edema method). In kind it is in vivo, Albino wistar rats. To be noted: at 25 mg concentration, oral, paw volume 3 h after carrageenin. The procedure:
The invention also describes use of enriched tetrahydroxycurcumin fraction containing 70-100% of TC for treating anti-inflammatory conditions.
Anti-inflammatory activity (Carragenin induced paw edema method): Prior to the experiment all the animals (Albino wistar rats of either sex weighing between 180-300 g) fasted at ad libitum water and were weighed, numbered and randomly divided into groups, each containing 3 animals. Initial paw volumes were measured using plethesmometer and noted. All the groups were treated with corresponding test substance orally using gastric tube. Control group was treated with 10 mL/Kg vehicle (0.5%, carboxymethyl cellulose sodium salt). After 30 minutes, all the animals were injected subcutaneously at subplantar region of left hind paw 1% carrageenin 0.1 mL using hypodermic needle. All the animals were administered water 20 mL/Kg body weight and kept devoid of water for 3 h (maintained uniform hydration). After 3 h, paw volumes of all the animals were measured twice and average volume from two measurements were recorded. The % of inhibition of paw edema was calculated by comparing paw edema of test substance treated groups with that of control groups.

Another data set has as its system 5-Lipoxygenase. Nature of the data set: 5-Lipoxygenase inhibitory activity (colorimetric, ferric xylenol orange). It counts as biochemical. The method, then: 5-Lipoxygenase activity: The enriched fraction of tetrahydroxycurcumin mixture, pure TC and tetrahydrotetrahydroxycurcumin fraction were screened for their 5-Lipoxygenase inhibitory potential using colorimetric method. The assay mixture contained 50 mM phosphate buffer pH 6.3, 5-Lipoxygenase, various concentrations of test substances in dimethyl sulphoxide and linoleic acid in a total volume of 0.5 mL, after 5 min incubation of above reaction mixture, 0.5 mL ferric xylenol orange reagent was added and OD was measured after two minutes at 585 nm using spectrophotometer. […] Percent inhibition was calculated by comparing absorbance of test solution with that of control.

The values below come from patent publication US8568802B2, “Process for producing enriched fractions of tetrahydroxycurcumin and tetrahydrotetrahydroxy-curcumin from the extracts of Curcuma longa” (Laila Impex, priority 2005, dated 2013).

On to `O=C(O)Cc1ccccc1Nc1c(Cl)cccc1Cl` [diclofenac sodium], for which the “% inhibition of paw edema” value in data set [1] turned out to be 63.10%.

Take `CC(Cc1ccc(O)c(O)c1)C(C)Cc1ccc(O)c(O)c1` (centres unmarked) [NDGA, Nordihydroguaiaretic acid]: the “% of inhibition (5-Lipoxygenase)” value in the data set on 5-Lipoxygenase (concentration 24 μg/mL) is reported as 60%.

For Acetyl-keto-boswellic acid [AKBA], the “% of inhibition (5-Lipoxygenase)” value with 5-Lipoxygenase (concentration 41 μg/mL) came out at 55%.

The term melting point denotes the temperature of the solid-liquid transition. The compound `O=C(/C=C/c1ccc(O)c(O)c1)CC(=O)/C=C/c1ccc(O)c(O)c1` [Pure tetrahydroxycurcumin (TC), 1,7-Bis(3,4-dihydroxyphenyl)-1,6-heptadiene-3,5-dione] showed a melting point of 302 to 304 °C. The “% of inhibition (5-Lipoxygenase)” value with 5-Lipoxygenase (concentration 16 μg/mL) amounted to 60%.
